Experimental data as given in patent publication US20200024278A1, “COMPOSITION COMPRISING ANTIBIOTIC COMPOUND AND AN HETEROCYCLIC COMPOUND AND THEIR USE IN PREVENTING OR TREATING BACTERIAL INFECTIONS” (MUTABILIS, priority 2016, published 2020).

Legend:
Experiment in all cases: MIC, broth microdilution (CLSI), substance alone or ATB combined with compound at 4 or 8 μg/mL
Type in all cases: cell-based, A. baumannii
ABA 19606 = system: ABA 19606
Method: (§1) Compounds of the present invention were assessed against genotyped bacterial strains alone or in combination with an antibacterial. In the assays, MICs of said compounds or combination of antibiotics with fixed concentrations of said compounds (4 or 8 μg/mL) were determined by the broth microdilution method according to the Clinical Laboratory Standards Institute (CLSI-M7-A7). Briefly, compounds alone according to the invention were prepared in DMSO and spotted (2 μL each) on sterile polystyrene plates (Corning, 3788). Combinations of compounds and antibiotics dilutions were prepared in DMSO and spotted (1 μL each) on sterile polystyrene plates (Corning, 3788). Log phase bacterial suspensions were adjusted to a final density of 5·10^5 CFU/mL in cation-adjusted Mueller-Hinton broth (ca-MHB; Becton-Dickinson and Company) and added to each well (98 μL). Assays including Fosfomycin were supplemented with 25 μg/ml of Glucose-6-phosphate. Microplates were incubated for 16-20 h at 35° C. in ambient air. The MIC of the compounds was defined as the lowest concentration of said compounds that prevented bacterial growth as read by visual inspection. The MIC of ATB at each compound concentration was defined as the lowest concentration of ATB that prevented bacterial growth as read by visual inspection.

ABA UFR151 = system: ABA UFR151
Method: as §1

ABA UFR161 = system: ABA UFR161
Method: as §1

ABA UFR159 = system: ABA UFR159
Method: as §1

ABA UFR156 = system: ABA UFR156
Method: as §1

ABA UFR152 = system: ABA UFR152
Method: as §1

ABA UFR157 = system: ABA UFR157
Method: as §1

CC1(C)[C@H](C(=O)O)N2C(=O)C[C@H]2S1(=O)=O [SUL]
MIC ATB combined with Example 9 @4 μg/ml (ABA 19606; with Example 9 @4 μg/ml): <=0.25 μg/mL
MIC ATB combined with Example 10 @8 μg/ml (ABA 19606; with Example 10 @8 μg/ml): <=0.25 μg/mL
MIC ATB combined with Example 11 @8 μg/ml (ABA 19606; with Example 11 @8 μg/ml): <=0.25 μg/mL
MIC ATB combined with Example 12 @8 μg/ml (ABA 19606; with Example 12 @8 μg/ml): <=0.25 μg/mL
MIC ATB combined with Example 15 @4 μg/ml (ABA 19606; with Example 15 @4 μg/ml): <=0.25 μg/mL
MIC ATB alone (ABA UFR151; antibiotic alone): 2 µg/mL
MIC ATB combined with Example 1 @8 μg/ml (ABA UFR151; with Example 1 @8 μg/ml): 0.5 µg/mL
MIC ATB combined with Example 3 @8 μg/ml (ABA UFR151; with Example 3 @8 μg/ml): <=0.25 μg/mL
MIC ATB combined with Example 6 @8 μg/ml (ABA UFR151; with Example 6 @8 μg/ml): <0.25 µg/mL
MIC ATB combined with Example 9 @4 μg/ml (ABA UFR151; with Example 9 @4 μg/ml): 0.5 µg/mL
MIC ATB combined with Example 10 @8 μg/ml (ABA UFR151; with Example 10 @8 μg/ml): <=0.25 μg/mL
MIC ATB combined with Example 11 @8 μg/ml (ABA UFR151; with Example 11 @8 μg/ml): <=0.25 μg/mL
MIC ATB combined with Example 12 @8 μg/ml (ABA UFR151; with Example 12 @8 μg/ml): <=0.25 μg/mL
MIC ATB combined with Example 15 @4 μg/ml (ABA UFR151; with Example 15 @4 μg/ml): <=0.25 μg/mL
MIC ATB alone (ABA UFR161; antibiotic alone): 128 µg/mL
MIC ATB combined with Example 1 @8 μg/ml (ABA UFR161; with Example 1 @8 μg/ml): 32 µg/mL
MIC ATB combined with Example 3 @8 μg/ml (ABA UFR161; with Example 3 @8 μg/ml): 16 µg/mL
MIC ATB combined with Example 6 @8 μg/ml (ABA UFR161; with Example 6 @8 μg/ml): 16 µg/mL
MIC ATB combined with Example 9 @4 μg/ml (ABA UFR161; with Example 9 @4 μg/ml): 8 µg/mL
MIC ATB combined with Example 10 @8 μg/ml (ABA UFR161; with Example 10 @8 μg/ml): 16 µg/mL
MIC ATB combined with Example 11 @8 μg/ml (ABA UFR161; with Example 11 @8 μg/ml): 8 µg/mL
MIC ATB combined with Example 12 @8 μg/ml (ABA UFR161; with Example 12 @8 μg/ml): 8 µg/mL
MIC ATB combined with Example 15 @4 μg/ml (ABA UFR161; with Example 15 @4 μg/ml): 16 µg/mL
MIC ATB alone (ABA UFR159; antibiotic alone): 256 µg/mL
MIC ATB combined with Example 1 @8 μg/ml (ABA UFR159; with Example 1 @8 μg/ml): 128 µg/mL
MIC ATB combined with Example 3 @8 μg/ml (ABA UFR159; with Example 3 @8 μg/ml): 128 µg/mL
MIC ATB combined with Example 6 @8 μg/ml (ABA UFR159; with Example 6 @8 μg/ml): 128 µg/mL
MIC ATB combined with Example 9 @4 μg/ml (ABA UFR159; with Example 9 @4 μg/ml): 128 µg/mL
MIC ATB combined with Example 10 @8 μg/ml (ABA UFR159; with Example 10 @8 μg/ml): 128 µg/mL
MIC ATB combined with Example 11 @8 μg/ml (ABA UFR159; with Example 11 @8 μg/ml): 128 µg/mL
MIC ATB combined with Example 12 @8 μg/ml (ABA UFR159; with Example 12 @8 μg/ml): 128 µg/mL
MIC ATB combined with Example 15 @4 μg/ml (ABA UFR159; with Example 15 @4 μg/ml): 128 µg/mL
MIC ATB alone (ABA UFR156; antibiotic alone): 64 µg/mL
MIC ATB combined with Example 1 @8 μg/ml (ABA UFR156; with Example 1 @8 μg/ml): 16 µg/mL
MIC ATB combined with Example 3 @8 μg/ml (ABA UFR156; with Example 3 @8 μg/ml): 2 µg/mL
MIC ATB combined with Example 6 @8 μg/ml (ABA UFR156; with Example 6 @8 μg/ml): 4 µg/mL
MIC ATB combined with Example 9 @4 μg/ml (ABA UFR156; with Example 9 @4 μg/ml): 16 µg/mL
MIC ATB combined with Example 10 @8 μg/ml (ABA UFR156; with Example 10 @8 μg/ml): 1 µg/mL
MIC ATB combined with Example 11 @8 μg/ml (ABA UFR156; with Example 11 @8 μg/ml): 8 µg/mL
MIC ATB combined with Example 12 @8 μg/ml (ABA UFR156; with Example 12 @8 μg/ml): 4 µg/mL
MIC ATB combined with Example 15 @4 μg/ml (ABA UFR156; with Example 15 @4 μg/ml): 8 µg/mL
MIC ATB alone (ABA UFR152; antibiotic alone): 4 µg/mL
MIC ATB combined with Example 1 @8 μg/ml (ABA UFR152; with Example 1 @8 μg/ml): 4 µg/mL
MIC ATB combined with Example 3 @8 μg/ml (ABA UFR152; with Example 3 @8 μg/ml): 1 µg/mL
MIC ATB combined with Example 6 @8 μg/ml (ABA UFR152; with Example 6 @8 μg/ml): 2 µg/mL
MIC ATB combined with Example 9 @4 μg/ml (ABA UFR152; with Example 9 @4 μg/ml): 2 µg/mL
MIC ATB combined with Example 10 @8 μg/ml (ABA UFR152; with Example 10 @8 μg/ml): 1 µg/mL
MIC ATB combined with Example 11 @8 μg/ml (ABA UFR152; with Example 11 @8 μg/ml): 1 µg/mL
MIC ATB combined with Example 12 @8 μg/ml (ABA UFR152; with Example 12 @8 μg/ml): 1 µg/mL
MIC ATB combined with Example 15 @4 μg/ml (ABA UFR152; with Example 15 @4 μg/ml): 2 µg/mL
MIC ATB alone (ABA UFR157; antibiotic alone): 64 µg/mL
MIC ATB combined with Example 1 @8 μg/ml (ABA UFR157; with Example 1 @8 μg/ml): 2 µg/mL
MIC ATB combined with Example 3 @8 μg/ml (ABA UFR157; with Example 3 @8 μg/ml): 0.5 µg/mL
MIC ATB combined with Example 6 @8 μg/ml (ABA UFR157; with Example 6 @8 μg/ml): <0.25 µg/mL
MIC ATB combined with Example 9 @4 μg/ml (ABA UFR157; with Example 9 @4 μg/ml): 1 µg/mL
MIC ATB combined with Example 10 @8 μg/ml (ABA UFR157; with Example 10 @8 μg/ml): 1 µg/mL
MIC ATB combined with Example 11 @8 μg/ml (ABA UFR157; with Example 11 @8 μg/ml): 0.5 µg/mL
MIC ATB combined with Example 12 @8 μg/ml (ABA UFR157; with Example 12 @8 μg/ml): 0.5 µg/mL
MIC ATB combined with Example 15 @4 μg/ml (ABA UFR157; with Example 15 @4 μg/ml): 1 µg/mL
